In patent US12129223B2, “Lipids for use in lipid nanoparticle formulations” (Acuitas Therapeutics, Inc., priority 2021, dated 2024):

Tests used:
[1] = Determination of pKa of formulated lipids (TNS fluorescence assay in lipid nanoparticles); type: physicochemical; settings: lipid nanoparticles (compound/DSPC/cholesterol/PEG-lipid), lipid formulated in LNP (lipid/DSPC/cholesterol/PEG-lipid), pH at half-maximal intensity
Procedure: As described elsewhere, the pKa of formulated lipids is correlated with the effectiveness of LNPs for delivery of nucleic acids (see Jayaraman et al, Angewandte Chemie, International Edition (2012), 51(34), 8529-8533; Semple et al, Nature Biotechnology 28, 172-176 (2010)). In some embodiments, the preferred range of pKa is ˜5 to ˜7. The pKa of each lipid is determined in lipid nanoparticles using an assay based on fluorescence of 2-(p-toluidino)-6-napthalene sulfonic acid (TNS). Lipid nanoparticles comprising compound of structure (I)/DSPC/cholesterol/PEG-lipid (50/10/38.5/1.5 or 47.5:10:40.7:1.8 mol %) in PBS at a concentration of 0.4 mM total lipid are prepared using the in-line process as described in Example 1. TNS is prepared as a 100 μM stock solution in distilled water. Vesicles are diluted to 24 μM lipid in 2 mL of buffered solutions containing 10 mM HEPES, 10 mM MES, 10 mM ammonium acetate, and 130 mM NaCl, where the pH ranged from 2.5 to 11. An aliquot of the TNS solution is added to give a final concentration of 1 μM and following vortex mixing fluorescence intensity is measured at room temperature in a SLM Aminco Series 2 Luminescence Spectrophotometer using excitation and emission wavelengths of 321 nm and 445 nm. A sigmoidal best fit analysis is applied to the fluorescence data and the pKa is measured as the pH giving rise to half-maximal fluorescence intensity.

[2] = tested on: human IgG in mouse serum; experiment: Immunoglobulin G (IgG) mRNA in vivo evaluation using lipid nanoparticle compositions; parameters: species or system mice; settings: LNP with IgG mRNA, tail vein injection, serum 24 hours after administration; for Serum IgG @ 0.3 mg/kg: 0.3 mg mRNA/kg; for Serum IgG @ 1.0 mg/kg: 1.0 mg mRNA/kg
Procedure: (§1) A lipid of structure (I), DSPC, cholesterol and PEG-lipid are solubilized in ethanol at a molar ratio of 50:10:38.5:1.5 or 47.5:10:40.7:1.8. Lipid nanoparticles (LNP) are prepared at a total lipid to mRNA weight ratio of approximately 10:1 to 40:1. Briefly, the mRNA is diluted to 0.2 mg/mL in 10 to 50 mM citrate buffer, pH 4 or 10 to 25 mM acetate buffer, pH 4. Syringe pumps are used to mix the ethanolic lipid solution with the mRNA aqueous solution at a ratio of about 1:5 to 1:3 (vol/vol) with total flow rates above 15 mL/min. The ethanol is then removed and the external buffer replaced with PBS by dialysis. Finally, the lipid nanoparticles are filtered through a 0.2 µm pore sterile filter.
Studies are performed in 6-8 week old CD-1/ICR mice (Envigo) according to guidelines established by an institutional animal care committee (ACC) and the Canadian Council on Animal Care (CCAC). Varying doses of mRNA-lipid nanoparticle are systemically administered by tail vein injection and animals euthanized at a specific time point (e.g., 24 hours) post-administration. The whole blood is collected, and the serum subsequentially separated by centrifuging the tubes of the whole blood at 2000×g for 10 minutes at 4° C. and stored at −80° C. until use for analysis.
For immunoglobulin G (IgG) ELISA (Life Diagnostics Human IgG ELISA kit), the serum samples are diluted at 100 to 15000 folds with 1×diluent solution. 100 μL of diluted serum is dispensed into anti-human IgG coated 96-well plate in duplicate alongside human IgG standards and incubated in a plate shaker at 150 rpm at 25° C. for 45 minutes. The wells are washed 5 times with 1× wash solution using a plate washer (400 μL/well). 100 μL of HRP conjugate is added into each well and incubated in a plate shaker at the same condition above. The wells are washed 5 times again with 1× wash solution using a plate washer (400 μL/well). 100 μL of TMB reagent is added into each well and incubated in a plate shaker at the same condition above. The reaction is stopped by adding 100 μL of Stop solution to each well. The absorbance is read at 450 nm (A450) with a microplate reader. The amount of human IgG in mouse serum is determined by plotting A450 values for the assay standard against human IgG concentration.
(§2) Representative compounds of the disclosure shown in Table 2 were formulated using the following molar ratio: 50% cationic lipid/10% distearoylphosphatidylcholine (DSPC)/38.5% Cholesterol/1.5% PEG lipid 2-[2-(ω-methoxy(polyethyleneglycol2000)ethoxy]-N,N-ditetradecyl acetamide) or 47.5% cationic lipid/10% DSPC/40.7% Cholesterol/1.8% PEG lipid. Relative activity was determined by measuring luciferase expression in the liver 4 hours following administration via tail vein injection as described in Example 1 or by measuring the amount of human IgG in mouse serum as described in example 2. The activity was compared at a dose of 1.0 or 0.5 or 0.3 mg mRNA/kg and expressed as ng luciferase/g liver measured 4 hours after administration, as described in Example 1 or as μg IgG/mL serum measured 24 hours after administration, as described in Example 2. Compound numbers in Table 2 refer to the compound numbers of Table 1.

[3] = tested on: luciferase expression in the liver; experiment: Luciferase mRNA in vivo evaluation using lipid nanoparticle compositions; parameters: species or system mice; settings: LNP with FLuc mRNA, tail vein injection, ng luciferase/g liver 4 hours after administration; for Liver Luc @ 0.3 mg/kg: 0.3 mg mRNA/kg; for Liver Luc @ 1.0 mg/kg: 1.0 mg mRNA/kg
Procedure: as §1
Studies are performed in 6-8 week old female C57BL/6 mice (Charles River) 8-10 week old CD-1 (Harlan) mice (Charles River) according to guidelines established by an institutional animal care committee (ACC) and the Canadian Council on Animal Care (CCAC). Varying doses of mRNA-lipid nanoparticle are systemically administered by tail vein injection and animals euthanized at a specific time point (e.g., 4 hours) post-administration. Liver and spleen are collected in pre-weighed tubes, weights determined, immediately snap frozen in liquid nitrogen and stored at −80° C. until processing for analysis.
For liver, approximately 50 mg is dissected for analyses in a 2 mL FastPrep tubes (MP Biomedicals, Solon OH). ¼″ ceramic sphere (MP Biomedicals) is added to each tube and 500 μL of Glo Lysis Buffer—GLB (Promega, Madison WI) equilibrated to room temperature is added to liver tissue. Liver tissues are homogenized with the FastPrep24 instrument (MP Biomedicals) at 2×6.0 m/s for 15 seconds. Homogenate is incubated at room temperature for 5 minutes prior to a 1:4 dilution in GLB and assessed using SteadyGlo Luciferase assay system (Promega). Specifically, 50 μL of diluted tissue homogenate is reacted with 50 μL of SteadyGlo substrate, shaken for 10 seconds followed by 5 minute incubation and then quantitated using a CentroXS^3 LB 960 luminometer (Berthold Technologies, Germany). The amount of protein assayed is determined by using the BCA protein assay kit (Pierce, Rockford, IL). Relative luminescence units (RLU) are then normalized to total μg protein assayed. To convert RLU to ng luciferase a standard curve is generated with QuantiLum Recombinant Luciferase (Promega).
The FLuc mRNA (L-6107) from Trilink Biotechnologies will express a luciferase protein, originally isolated from the firefly, Photinus pyralis. FLuc is commonly used in mammalian cell culture to measure both gene expression and cell viability. It emits bioluminescence in the presence of the substrate, luciferin. This capped and polyadenylated mRNA is fully substituted with 5-methylcytidine and pseudouridine.
as §2

| pKa [1] | Compound | Serum IgG @ 0.3 mg/kg [2] | Serum IgG @ 1.0 mg/kg [2] | Liver Luc @ 0.3 mg/kg [3] | Liver Luc @ 1.0 mg/kg [3] |
| --- | --- | --- | --- | --- | --- |
| 6.67 | CCCCCCCCCCCCN(CCCCCCCCCCCC)C(=O)CCCCCN(C)CCCCCC(=O)N(CCCCCCCCCCCC)CCCCCCCCCCCC [Compound I-11, 6,6′-(methylazanediyl)bis(N,N-didodecylhexanamide)] | 8.22 ± 0.84 µg/mL | 47.68 ± 5.26 µg/mL |  |  |
| 6.39 | CCCCCCCCCCCCN(CCCCCCCCCCCC)C(=O)CCCCCCCN(CCO)CCCCCCCC(=O)N(CCCCCCCCCCCC)CCCCCCCCCCCC [Compound I-37, 8,8′-((2-hydroxyethyl)azanediyl)bis(N,N-didodecyloctanamide)] | 1.75 ± 0.58 µg/mL | 10.05 ± 2.32 µg/mL |  |  |
| 6.48 | CCCCCCCCCCCCN(CCCCCCCCCCCC)C(=O)CCCCCN(CCCCCCO)CCCCCC(=O)N(CCCCCCCCCCCC)CCCCCCCCCCCC [Compound I-38, 6,6′-((6-hydroxyhexyl)azanediyl)bis(N,N-didodecylhexanamide)] | 4.71 ± 0.46 µg/mL | 45.87 ± 2.33 µg/mL |  |  |
| 6.17 | CCCCCCCCCCCCN(CCCCCCCCCCCC)C(=O)CCCCCCCN(C)CCCCCCCC(=O)N(CCCCCCCCCCCC)CCCCCCCCCCCC [Compound I-40, 8,8′-(methylazanediyl)bis(N,N-didodecyloctanamide)] | 16.72 ± 5.38 µg/mL | 101.96 ± 4.12 µg/mL |  |  |
| 6.6 | CCCCCCCCCCN(CCCCCCCCCC)C(=O)CCCCCCCN(CCCO)CCCCCCCC(=O)N(CCCCCCCCCC)CCCCCCCCCC [Compound I-41, 8,8′-((3-hydroxypropyl)azanediyl)bis(N,N-didecyloctanamide)] | 4.78 ± 1.65 µg/mL |  |  |  |
| 6.66 | CCCCCCCCCCN(CCCCCCCCCC)C(=O)CCCCCCCN(CCCCCCCC(=O)N(CCCCCCCCCC)CCCCCCCCCC)CCOCCO [Compound I-42, 8,8′-((2-(2-hydroxyethoxy)ethyl)azanediyl)bis(N,N-didecyloctanamide)] | 3.13 ± 0.27 µg/mL | 12.42 ± 3.81 µg/mL |  |  |
| 6.02 | CCCCCCCCCCN(CCCCCCCCCC)C(=O)CCCCCCCN(CCCCCCCC(=O)N(CCCCCCCCCC)CCCCCCCCCC)CCCC(C)(C)CO [Compound I-43, 8,8′-((5-hydroxy-4,4-dimethylpentyl)azanediyl)bis(N,N-didecyloctanamide)] | 2.45 ± 0.66 µg/mL | 9.97 ± 1.17 µg/mL |  |  |
| 6.69 | CCCCCCCCCCN(CCCCCCCCCC)C(=O)CCCCCCCN(CCCCCCCC(=O)N(CCCCCCCCCC)CCCCCCCCCC)CCCn1ccnc1C [Compound I-44, 8,8′-((3-(2-methyl-1H-imidazol-1-yl)propyl)azanediyl)bis(N,N-didecyloctanamide)] | 0.59 ± 0.11 µg/mL | 1.86 ± 0.27 µg/mL |  |  |
| 5.96 | CCCCCCCCCCN(CCCCCCCCCC)C(=O)CCCCCCCN(CCCCCCCO)CCCCCCCC(=O)N(CCCCCCCCCC)CCCCCCCCCC [Compound I-45, 8,8′-((7-hydroxyheptyl)azanediyl)bis(N,N-didecyloctanamide)] | 3.03 ± 0.66 µg/mL | 13.00 ± 2.05 µg/mL |  |  |
| 6.63 | CCCCCCCCCCN(CCCCCCCCCC)C(=O)CCCCCCCN(CCCCCCCC(=O)N(CCCCCCCCCC)CCCCCCCCCC)CCCn1ccnc1 [Compound I-48, 8,8′-((3-(1H-imidazol-1-yl)propyl)azanediyl)bis(N,N-didecyloctanamide)] | 1.02 ± 0.20 µg/mL | 3.40 ± 0.87 µg/mL |  |  |
| 6.73 | CCCCCCCCCCN(CCCCCCCCCC)C(=O)CCCCCCCN(CCCCCCCC(=O)N(CCCCCCCCCC)CCCCCCCCCC)CCCNc1c(NC)c(=O)c1=O [Compound I-50, 8,8′-((3-((2-(methylamino)-3,4-dioxocyclobut-1-en-1-yl)amino)propyl)azanediyl)bis(N,N-didecyloctanamide)] | 1.32 ± 0.28 µg/mL | 11.05 ± 2.19 µg/mL |  |  |
| 6.38 | CCCCCCCCCCN(CCCCCCCCCC)C(=O)CCCCCCCCCN(CCCCCCCCCC(=O)N(CCCCCCCCCC)CCCCCCCCCC)CCCNc1c(NC)c(=O)c1=O [Compound I-60, 10,10′-((3-((2-(methylamino)-3,4-dioxocyclobut-1-en-1-yl)amino)propyl)azanediyl)bis(N,N-didecyldecanamide)] |  |  | 2176 ± 162 ng/g | 9178 ± 2483 ng/g |
| 6.33 | CCCCCCCCCCN(CCCCCCCCN(C)CCCCCCCCN(CCCCCCCCCC)C(=O)CCCCCCCCC)C(=O)CCCCCCCCC [Compound I-65] |  |  | 3172 ± 658 ng/g | 24740 ± 6297 ng/g |
| 6.17 | CCCCCCCCC(CCCCCC)C(=O)N(C)CCCCCCCCN(C)CCCCCCCCN(C)C(=O)C(CCCCCC)CCCCCCCC (centres unmarked) [Compound I-70, N,N′-((methylazanediyl)bis(octane-8,1-diyl))bis(2-hexyl-N-methyldecanamide)] |  |  | 7516 ± 1487 ng/g | 33238 ± 9902 ng/g |
